Source: US5705649A, “Protein staining compositions and methods” (Promega Corporation, priority 1995, dated 1998)

Tests used:
[1] = tested on: Promega Mid Range Molecular Weight Standards; test: Detection of fractionated protein in SDS-PAGE gels using dansyl derivatives made in acetone; conditions: for lowest protein per band visible: 2% (v/v) eluate in 10% methanol
Experimental: Several 15-well, SDS-PAGE minigels were poured as described in Example 27 and loaded with Promega Mid Range Molecular Weight Standards diluted as described in Example 27 to provide samples containing 1000, 300, 100, 50, 25, 12.5, and 6.25ng of each protein per band in separate lanes of the gel. The samples were fractionated by application of 20 mA per gel until the tracking dye reached the bottom of the gel. All the gels were placed in 10% trichloroacetic acid for 5 min and then incubated for 10 min in 10% (v/v) methanol. The gels were then incubated in a 10% methanol solution containing 2% (v/v) of the derivative eluates (dissolved in 50 ml ethanol) described in Example 28. The gels were transferred to a transilluminator and both visualized and photographed after two hours of staining. The following observations were made. Only the lanes containing 1000 and 300ng of protein per band were visible in the gel incubated with the n-butyl dansyl derivative. The lanes containing the 1000, 300, 100, 50, 25ng per band were visible in the gel incubated with the n-hexyl derivative as were some of the bands in the 12.5 ng per band lane.
After overnight incubation in the stain solutions, the gels were re-observed and rephotographed.
The gels were then placed in 1% acetic acid to remove any unbound stain and rephotographed after three hours of incubation in this solution at room temperature.

[2] = Spectral analyses of Coomassie Blue R and Promega Green 1, 2, 3; type: physicochemical
Experimental: The three solutions of Promega Green 1, 2, and 3, from examples 1, 2 and 3 respectively, were diluted approximately 500 fold into a 1:1 solution of methanol:water. The spectra of the resulting solutions and of a 12 μg/ml solution of Coomassie Blue R (in 1:1 methanol:water) were recorded from 700 to 340 nm versus 1:1 methanol:water. […] All of the derivatives gave essentially identical spectra; however, the maximal absorbance of the diluted Promega Green i was about twice that seen for the other derivatives. The derivatives had two peak absorptions in the region of the spectrum scanned, a major peak at around 630 nm and a second peak at around 440 nm. The following absorbances were recorded at the peaks near 630 nm for the three Promega Green dye solutions (diluted 1:500 in 1:1 methanol:water): […]

[3] = tested on: Promega Mid-Range Molecular Weight Markers; test: Detection of proteins during SDS-PAGE electrophoresis (dye in cathode buffer); conditions: 10% SDS-PAGE, dye in cathode buffer, white plastic card behind gel
Excerpt: Solutions for the formation and electrophoresis of proteins were made according to the instructions given in Experiments in Gene Fusions, Silhavy, Berman, Enquist, Cold Spring Harbor Laboratory Press, Cold Spring Harbor, N.Y. with the following changes:
a) The SDS concentration in the upper and lower gel buffer components were reduced to result in a 0.05% final SDS concentration in the gel. Thus, the composition of 4× upper gel buffer was 0.5M Tris-HCl, pH 6.8, 0.2 % (w/v) sodium dodecylsulfate (SDS) and the composition of 4× lower gel buffer was 1.5M Tris-HCl, pHS.8, 0.2 % (w/v) SDS.
b) The SDS concentration in the electrophoretic (electrode) buffer was reduced to 0.04% final concentration. Thus, 4× electrode (anode or cathode) buffer was made by dissolving 60 g Tris base, 288 g glycine, and 8 g SDS dissolved in water and then diluting with water to 5 liters. Another name sometimes used for "electrode" buffer is "running" buffer.
c) The SDS concentration in the 2× sample buffer was reduced to 1% final SDS concentration. Thus, 2× sample buffer was made by mixing 0.5 ml of betamercaptoethanol, 0.25 ml of 0.1% (w/v) bromophenol blue, 1 ml of 10 % (w/v) SDS, 3 ml of water, and 5.3 ml of 2× glycerol buffer. 2× glycerol buffer is made by mixing 12.5 ml of 4× upper gel buffer and 20 ml of glycerol and diluting the resulting solution to 60 ml with water. Another name sometimes used for "sample" buffer is "loading" buffer.
d) Electrophoresis was performed using a BIO-RAD miniprotein II electrophoresis apparatus and gels were poured such that i cm of space was present between the bottom of the loading wells and the separating gel.
In other electrophoresis experiments reported in this application, the buffers used were as described above in this example. In some cases, as in this example, where preparation of a solution of dye in 150 ml of cathode (or electrode) buffer is specified, an amount of stock solution of a dye was first added to 150 ml of cathode buffer and then 125 ml of the resulting solution was used to fill the cathode buffer chamber (which holds 125 ml) in the electrophoresis apparatus. In other cases, where addition of stock solution of dye to the cathode buffer is specified without reference to the volume of cathode buffer or with reference to such volume being "125 ml," the stock solution was added directly to 125 ml of cathode buffer already in the cathode buffer chamber.
The samples used were prepared with Promega Mid-Range Molecular Weight Markers solution (Promega Corp., Madison, Wis., USA, Catalog No. V5231) (referred to hereinafter as "Promega Mid-Range [Molecular Weight] Markers or Standards") diluted into Sample Buffer. […]

[4] = tested on: Promega Mid-Range Molecular Weight Markers; test: Enhancement of staining of proteins in SDS-PAGE gels in 5% acetic acid; conditions: 5% acetic acid
Experimental: The gels described above were placed in 5% acetic acid following the termination of the electrophoretic separation. Within one to two minutes the gel developed a light green background but the protein bands dramatically darkened to a green color. […] Again, the color of the background darkened to a greater degree when greater concentrations of dye were used.
The gels above (from Example 7) were placed in 5% acetic acid following termination of the electrophoretic separation. Within 1-2 minutes, all the gels turned light green and the color of the stained bands intensified such that all proteins were visible--even in the lane containing 0.25 μg protein/band.
The gels above (Example 9) were placed in 5% acetic acid following termination of the electrophoretic separation. Within 1-2 minutes, all the gels turned light green and the color of the stained bands intensified such that all proteins were visible--even in the lanes containing 0.25 μg protein/band.

[5] = tested on: Promega Mid Range Molecular Weight Standards; test: Post-electrophoretic detection of protein with purified dansyl derivatives
Experimental: Samples of the eluates from purification of the derivatives were diluted 20-fold with ethanol and the absorption of the resulting solutions from 400 to 220 nm was measured. The absorption of the solutions at 328 nm was used as an indication of the concentration of the derivative in the staining studies in Example 27.
Several SDS-PAGE minigels were made as described in Experiments with Gene Fusions, Silhavy, Berman, Enquist, supra, using the SDS concentrations described by the authors. Samples of Promega Mid Range Molecular Weight Standards were diluted into the loading solution described in the reference above to produce solutions containing 200, 100, 50, 25, and 12.5 ng of each protein species in 10 μl of solution. These solutions were loaded onto the gels and the samples were fractionated in the gels by application of 10 mA per gel until the tracking dye for the samples reached the bottom of the gel. The gels were then rinsed 1 min in distilled water, 15 min in 10% trichloracetic acid (w/v), and then for 15 min in 10% methanol (v/v). The gel segments, approximately 5×6 cm containing the fractionated standard, were then transferred to a 2% ethanol solution (50 ml) containing 0.05 OD328 -equivalent of each of the dansyl derivatives (see Example 26).
The gel segments were returned to their respective staining solutions and were incubated overnight. The following morning, all of the gel segments were again visualized on the transilluminator and photographed as described above. […] In general, relatively equivalent staining of bands was obtained as determined by the strength of the fluorescent signal observed for the various fractionated species.

[6] = tested on: Promega Mid Range Molecular Weight standard; test: Post-electrophoretic staining with fluorescein isothiocyanate derivatives; conditions: for lowest protein per band stained: after overnight in 10% methanol; for lowest protein per band with visible bands / standards detected: 1:500 in 10% methanol, 1 hour, destained 30 min
Experimental: Six 12% gels were made as described in Example 27 and were loaded with diluted Promega Mid Range Molecular Weight standard to produce lanes containing, per band, 1000, 500, 200, 100, 75, 50, 25 and 10 ng of protein. The gel was run as described in Example 27 and then the gels were incubated 15 min in 50% methanol. The gels were then transferred to individual 50 ml staining solutions, which were stock derivatized dye solutions of Example 36 diluted 1:500 with 10% methanol. After one hour, these solutions were removed and destaining with 50 ml of 10% methanol was performed. After an additional 30 min. the gels were visualized on a transilluminator and photographed. Protein bands were visible for the gels stained with amino fluorescein and p-amino benzoic acid fluorescein derivatives, however the bands were seen only in the lanes containing 1000, 500, and 200 ng of protein per band. […] At this point, the gel stained with the ethyl p-amino benzoyl derivative allowed detection of all of the proteins in the lanes containing as little as 75 ng of protein per band.
The gels were then placed in 50 ml of 10% methanol and allowed to incubate overnight at room temperature. After overnight incubation, the gels were visualized on a transilluminator and photographed. […] The gel stained with the amino derivative (reaction 5) had faded to the point where protein species were only detected in the 1000 and 500 ng protein per band lanes. However, in these lanes, only particular protein species were stained, as described above.

In the case of `CCOC(=O)c1ccc(NS(=O)(=O)c2cccc3c(N(C)C)cccc23)cc1`, the “lowest protein per band visible” value ([1]; two hours of staining) is reported as 25 ng.
In the case of `CCOc1ccc(Nc2ccc(C(=C3C=CC(=[N+](CC)Cc4cccc(S(=O)(=O)[O-])c4)C=C3)c3ccc(N(CC)Cc4cccc(S(=O)(=O)O)c4)cc3)cc2)cc1` [Coomassie Blue R, reference compound], the “maximal absorbance wavelength (major peak)” value ([2]; 1:1 methanol:water, 700 to 340 nm) is reported as “around 590 nm”.
In the case of `CCOc1ccc(N(C(C)=O)c2ccc(C(=C3C=CC(=[N+](CC)Cc4cccc(S(=O)(=O)[O-])c4)C=C3)c3ccc(N(CC)Cc4cccc(S(=O)(=O)O)c4)cc3)cc2)cc1` [Promega Green 2], the “lowest protein amount per band visible while the gel was running” value [3] is reported as 1.0 µg, the “lowest protein amount per band visible after enhancement” value ([4]; 1-2 minutes) is reported as 0.25 µg and the “staining after overnight incubation” value ([4]; overnight) is reported as “slightly faded”. The “Absorbance at the peak near 630 nm” value ([2]; diluted 1:500 in 1:1 methanol:water) was 1.37.
For `CN(C)c1cccc2c(S(N)(=O)=O)cccc12` [control dansyl amine, reference compound], the “visibility of protein bands” value ([5]; overnight staining) was “no bands were seen”.
In the case of `CCCCCCCCCCNS(=O)(=O)c1cccc2c(N(C)C)cccc12` [decyl derivative], the “lowest protein per band visible” value ([1]; two hours of staining) is reported as 25 ng, the “protein per band at which most of the protein species were visible” value ([1]; after 1% acetic acid, three hours) is reported as 6.25 ng and the “protein per band at which at least some of the bands could be visualized” value ([1]; overnight staining) is reported as 12.5 ng.
In the case of `O=C(O)c1cc(NC(=S)Nc2ccc(NC(=S)Nc3ccc(-c4c5ccc(=O)cc-5oc5cc(O)ccc45)c(C(=O)O)c3)cc2)ccc1-c1c2ccc(=O)cc-2oc2cc(O)ccc12` [difluorescein phenylenediamine], the “lowest protein per band stained” value [6] is reported as 200 ng.
With `CCOC(=O)c1ccc(NC(=S)Nc2ccc(-c3c4ccc(=O)cc-4oc4cc(O)ccc34)c(C(=O)O)c2)cc1` [ethyl p-amino benzoic acid fluorescein] the “lowest protein per band with visible bands” value [6] was 75 ng and the “lowest protein per band stained” value [6] was 200 ng.
With `CCCCNS(=O)(=O)c1cccc2c(N(C)C)cccc12` [n-butyl dansyl derivative] the “lowest protein per band visible” value ([1]; two hours of staining) was 300 ng.
In the case of `CCCCCCNS(=O)(=O)c1cccc2c(N(C)C)cccc12` [n-hexyl derivative], the “lowest protein per band visible” value ([1]; two hours of staining) is reported as 25 ng and the “protein per band at which some of the bands were visible” value ([1]; two hours of staining) is reported as 12.5 ng.
In the case of `CCCCCCCCNS(=O)(=O)c1cccc2c(N(C)C)cccc12` [octyl dansyl derivative], the “staining quality compared to the amino or butyl derivatives” value [5] is reported as “much better stains compared to the amino or butyl derivatives”, the “visibility of protein bands” value ([5]; 15 min staining, 0.05 OD328-equivalent in 2% ethanol, 200-12.5 ng per band) is reported as “easily visualized in the photograph of the gel” and the “change in staining of bovine serum albumin and ovalbumin” value ([5]; overnight staining) is reported as “somewhat fainter after the overnight incubation”. The “visibility of protein bands” value ([5]; overnight staining) was “easily visible” and the “staining result relative to n-hexyl derivative” value ([1]; two hours of staining) was “Essentially equivalent results, but with lower fluorescence intensities”.
With `O=C(O)c1ccc(NC(=S)Nc2ccc(-c3c4ccc(=O)cc-4oc4cc(O)ccc34)c(C(=O)O)c2)cc1` [p-amino benzoic acid fluorescein] the “lowest protein per band with visible bands” value [6] was 200 ng, the standards detected [6] was 97, 55, 40 and 31 kDa and the “lowest protein per band stained” value [6] was 200 ng.
For `NC(=S)Nc1ccc(-c2c3ccc(=O)cc-3oc3cc(O)ccc23)c(C(=O)O)c1` [reference compound], the “lowest protein per band with visible bands” value [6] was 200 ng, the standards detected [6] was 97, 66, 55 and 40 kDa and the “lowest protein per band stained” value [6] was 500 ng.
